# Measurements from patent US8372967B2, “Compounds and methods for modulating expression of GCCR” (Isis Pharmaceuticals, Inc., priority 2006, dated 2013).
# Strand notation (5' to 3'): a small letter for the sugar, then the base; units joined by * are phosphorothioate-linked, units joined directly phosphodiester-linked; [ ] holds rarer units or linkages, { } end groups; capitals alone tell only the bases. [PAM-N] = nucleoside carrying a 2'-(butylacetamido)-palmitamide group (palmitic acid C16 conjugate) (N: the base); e = 2'-O-(2-methoxyethyl) (MOE); l = locked nucleic acid (LNA); [5mC] = 5-methylcytosine; d = 2'-deoxy (DNA)
# Tests used:
# Assay type in all cases: in vivo, mouse
# [1] = test system: ApoB mRNA; experiment: ApoB mRNA level in liver, Balb/c mice dosed i.p. twice per week for three weeks (Table 29); EC50 in liver; details: for ApoB mRNA level: Table 30, Balb/c mice; for % ApoB mRNA Level (relative to saline control): liver, Balb/c mice
# Protocol: Prior to quantitative PCR analysis, primer-probe sets specific to the target gene being measured were evaluated for their ability to be “multiplexed” with a GAPDH amplification reaction. After isolation the RNA is subjected to sequential reverse transcriptase (RT) reaction and real-time PCR, both of which are performed in the same well. RT and PCR reagents were obtained from Invitrogen Life Technologies (Carlsbad, Calif.). […] The RT reaction was carried out by incubation for 30 minutes at 48° C. Following a 10 minute incubation at 95° C. to activate the PLATIN 9M® Taq, 40 cycles of a two-step PCR protocol were carried out: 95° C. for 15 seconds (denaturation) followed by 60° C. for 1.5 minutes (annealing/extension).
# 170 μL of RiboGreen® working reagent (RiboGreen® reagent diluted 1:350 in 10 mM Tris-HCl, 1 mM EDTA, pH 7.5) was pipetted into a 96-well plate containing 30 μL purified cellular RNA. The plate was read in a CytoFluor® 4000 (PE Applied Biosystems) with excitation at 485 nm and emission at 530 nm.
# (§1) Antisense compound doses included 2.4, 1.2, 0.6, 0.3 and 0.15 μmol/kg. For antisense compounds 14 nucleotides in length, these doses equate to approximately 12, 6, 3, 1.5 or 0.75 mg/kg, respectively. Shown in Table 25 are the sequences and motifs of the antisense compounds used in this study. […] Bolded residues indicate 2′-O-methoxyethyl moieties and italicized residues indicate methyleneoxy (4′-CH2—O-2′) BNAs. The internucleoside linkages of each compound are phosphorothioate throughout. All cytosine residues of ISIS 147764 and ISIS 372938 are replaced by 5-methyl cytosines. For ISIS 387462, only the cytosine residue in the wing of the compound is replaced by 5-methyl cytosine. ApoB antisense compounds are targeted to publicly available ApoB-100 sequences, including Genbank Accession No. XM—137955.5 (SEQ ID NO: 2).
# (§2) Forty-eight hours following the final injection, mice were sacrificed to evaluate transaminases (Table 26); liver and kidney weight (Table 27); triglyceride, LDL, HDL and free fatty acid levels (Table 28); target mRNA level in liver (Table 29); target protein level in plasma; and oligonucleotide tissue concentration (Table 30). These endpoints were determined using methods described herein and well known to those of ordinary skill in the art.
# The EC50 for ISIS 387462 in the liver was determined by comparing oligonucleotide concentration in the liver to inhibition of ApoB mRNA.
# [2] = ALT and AST levels and adverse side effects, ApoB study (Table 26); details: Balb/c mice, i.p. twice per week for three weeks, 48 h after final injection
# Protocol: as §1, §2
# [3] = Liver and kidney weight, body weight, food consumption, glucose, ApoB study (Table 27); details: Balb/c mice, i.p. twice per week for three weeks
# Protocol: as §1, §2
# Glucose levels also were similar among all treatment groups.
# [4] = Triglyceride, total cholesterol, HDL, LDL and free fatty acid levels, ApoB study (Table 28); set-up: Free Fatty Acid (FFA): unit not given here; details: Balb/c mice, i.p. twice per week for three weeks
# Protocol: as §1, §2
# [5] = Full-length and total antisense compound tissue concentration in liver and kidney, ApoB study (Table 30); details: Balb/c mice, i.p. twice per week for three weeks, 2.4 μmol/kg
# Protocol: as §1, with “ApoB antisense compounds are targeted to publicly available ApoB-100 sequences, including Genbank Accession No. XM—137955.5 (SEQ ID NO: 2).” left out
# as §2
# To determine whether the observed increase in efficiency with the methyleneoxy (4′-CH2—O-2′) BNA gapmer is due to an increase in oligonucleotide accumulation, full-length and total oligonucleotide concentration in the liver and kidney were determined.
# [6] = test system: PTEN mRNA; experiment: PTEN mRNA levels in liver, kidney and fat, Balb/c mice, single i.p. 8 μmol/kg (Table 48); details: 72 h, saline = 100
# Description: (§3) Each dose group consisted of four animals. Shown in Table 46 are the sequences and motifs of the PTEN antisense compounds used in this study. Bolded residues indicate 2′-O-methoxyethyl moieties (2′-MOE) and italicized residues indicate Methyleneoxy BNA nucleotides. Each antisense compound comprises phosphorothioate linkages throughout. In addition, the cytosine residues in the gap of ISIS 384073 and in the wings of ISIS 392056, ISIS 392057, ISIS 392061 and ISIS 392063 are replaced with 5-methylcytosines. Antisense compounds target published PTEN nucleic acids, including Genbank Accession No. U92437.1 (SEQ ID
# (§4) Mice were sacrificed 72 hours following injection to determine serum transaminase levels (Table 47); liver and spleen weights (Table 47); and PTEN mRNA levels in liver, kidney and fat (Table 48), according to procedures described herein and well know to one of ordinary skill in the art.
# [7] = Transaminase levels and organ weights, PTEN study (Table 47); details: single i.p. 8 μmol/kg, 72 h
# Description: as §3, §4
# [8] = test system: ApoB mRNA; experiment: ApoB mRNA in liver, Balb/c mice, BNA short antisense compounds twice per week for three weeks (Table 89); details: relative to saline
# Protocol: The short antisense compounds shown in Table 88 were tested for their effects in vivo. […] A 5-10-5 MOE gapmer was used for a control treatment. Mice were sacrificed approximately 48 hours following the final dose. Liver tissue was collected for RNA isolation, and blood was collected for serum chemistry analyses. ApoB mRNA levels were measured by real-time PCR as described herein. ApoB mRNA levels were normalized to RNA levels as determined by RIBOGREEN, and are presented in Table 89 as percent inhibition relative to ApoB mRNA levels in saline-treated control animals.
# [9] = test system: ApoB mRNA; experiment: ApoB mRNA in liver and ED50, single dose of BNA short antisense compounds (Table 92); details: ApoB mRNA in liver, Balb/c mice, relative to saline
# Protocol: (§5) The short antisense compounds tested were ISIS 387462 and ISIS 398296. Each dose group consisted of four animals. A 5-10-5 MOE gapmer was used for a control treatment. Mice were sacrificed approximately 48 hours following the final dose. Liver tissue was collected for RNA isolation, and blood was collected for serum chemistry analyses. ApoB mRNA levels were measured by real-time PCR as described herein. ApoB mRNA levels were normalized to RNA levels as determined by RIBOGREEN, and are presented in Table 92 as percent inhibition relative to ApoB mRNA levels in saline-treated control animals.
# At the 8 umol/kg dose, ApoB inhibition by the short antisense compounds was greater than observed with a 5-10-5 MOE gapmer at an equivalent dose. […] Triglycerides were reduced at the highest dose.
# [10] = Triglycerides, total cholesterol, HDL-C, LDL-C and adverse effects (Example 30)
# Protocol: as §5, with “0.4,” for “The short antisense compounds tested were ISIS 387462”, “0.16 umol/kg.” for “ISIS 398296.”, “95” for “92”
# At the 2.5 umol/kg dose, ApoB inhibition by the short antisense compounds was greater than observed with a 5-10-5 MOE gapmer at an equivalent dose. […] Triglycerides were reduced at the 2.5 and […] doses of ISIS 387462 and ISIS 391872.
substance,measurement,setting,value
147764 (antisense eG*eT*e[5mC]*e[5mC]*e[5mC]*dT*dG*dA*dA*dG*dA*dT*dG*dT*d[5mC]*eA*eA*eT*eG*e[5mC]) [compound 147764],ApoB mRNA level,[1]; 2.4 μmol/kg,58 % of saline control
same,AST,[2]; 2.4 μmol/kg,64.0 IU/L
372938 (antisense eG*eG*dT*dA*d[5mC]*dA*dT*dG*dG*dA*dA*dG*eT*e[5mC]) [compound 372938],ApoB mRNA level,[1]; 2.4 μmol/kg,77 % of saline control
same,% ApoB mRNA Level (relative to saline control),[1]; 1.2 μmol/kg,90.0%
same,% ApoB mRNA Level (relative to saline control),[1]; 2.4 μmol/kg,77.0%
same,AST,[2]; 0.3 μmol/kg,60.0 IU/L
same,ALT,[2]; 0.6 μmol/kg,28.0 IU/L
same,ALT,[2]; 2.4 μmol/kg,26.0 IU/L
same,AST,[2]; 2.4 μmol/kg,49.0 IU/L
same,Kidney Weight,[3]; 0.15 μmol/kg,98 % of saline control
same,Liver Weight,[3]; 0.15 μmol/kg,96 % of saline control
same,Liver Weight,[3]; 0.3 μmol/kg,91 % of saline control
same,Liver Weight,[3]; 0.6 μmol/kg,96 % of saline control
same,Liver Weight,[3]; 1.2 μmol/kg,90 % of saline control
same,Kidney Weight,[3]; 2.4 μmol/kg,100 % of saline control
same,Liver Weight,[3]; 2.4 μmol/kg,100 % of saline control
same,LDL,[4]; 0.3 μmol/kg,11.0 mg/dL
same,Total Cholesterol (CHOL),[4]; 0.6 μmol/kg,110 mg/dL
same,Free Fatty Acid (FFA),[4]; 1.2 μmol/kg,1.70
same,LDL,[4]; 1.2 μmol/kg,9.5 mg/dL
same,HDL,[4]; 2.4 μmol/kg,79.0 mg/dL
same,Kidney Full-Length Antisense Compound Tissue Concentration,[5],32.0 µM
same,Kidney Total Antisense Compound Tissue Concentration,[5],34.0 µM
391172 (antisense lC*lT*dA*dG*dC*dC*dT*dC*dT*dG*dG*dA*lT*lT*lT) [compound 391172],% PTEN mRNA levels in Kidney,[6],63%
same,% PTEN mRNA levels in Liver,[6],18%
same,Liver Weight,[7],120 % Saline
392061 (antisense l[5mC]*lT*dA*dG*dC*dC*dT*dC*dT*dG*dG*dA*lT*lT) [compound 392061],% PTEN mRNA levels in Fat,[6],85%
same,% PTEN mRNA levels in Kidney,[6],61%
same,% PTEN mRNA levels in Liver,[6],24%
same,ALT,[7],42.0 IU/L
"398296 (GGTACATGGAAGTC; 2-10-2 (6'S)-6'-methyl BNA gapmer, chemistry not fully specified) [compound 398296]",% Inhib,[8]; i.p. 0.1 umol/kg twice per week for three weeks,17%
same,% Inhib,[8]; i.p. 0.32 umol/kg twice per week for three weeks,35%
same,% Inhib,[8]; i.p. 1 umol/kg twice per week for three weeks,80%
same,% Inhib,[8]; i.p. 3.2 umol/kg twice per week for three weeks,98%
same,% Inhib,[9]; single i.p. injection 1 umol/kg,19%
same,% Inhib,[9]; single i.p. injection 2 umol/kg,54%
same,% Inhib,[9]; single i.p. injection 4 umol/kg,81%
same,% Inhib,[9]; single i.p. injection 8 umol/kg,97%
"ISIS 391872: GGTACATGGAAGTC 1-1-10-2 2′-(butylacetomido)-palmitamide Methyleneoxy BNA/Methyleneoxy BNA, Unmodified cytosines in gap, ApoB ([PAM-G]*lG*dT*dA*dC*dA*dT*dG*dG*dA*dA*dG*lT*l[5mC])",Triglycerides,[10]; at the 2.5 and 1.0 mg/kg doses,reduced
same,"total cholesterol, HDL-C and LDL-C",[10]; in a dose-dependent manner,markedly reduced
